Source: patent US6362166B1, “Antipicornaviral compounds and methods for their use and preparation” (Agouron Pharmaceuticals, Inc., priority 1996, dated 2002)
Where two headings read alike, the source gives them in different places.

Assays:
[1] = target: T1, Recombinant Rhinovirus 3C protease (RVP) serotype-14 (Human rhinovirus 14, UniProt P03303); experiment: Inhibition of Rhinovirus Protease (fluorescence resonance energy transfer assay), serotype 14; assay type: biochemical, human rhinovirus (HRV); conditions: RVP serotype-14; for INHIB (percent inhibition): 10 minute preincubation with 50 nM RVP; for kobs/I: progress curves in enzyme start experiments
T1 construct: Recombinant Rhinovirus 3C proteases from serotypes 14, 16, 2 or 89; made in house
Procedure: Stock solution (50 mM, in DMSO) of various compounds were prepared; dilutions were in the same solvent. […] Assays contained 2% DMSO, 50 mM tris pH 7.6, 1 mM EDTA, a compound at the indicated concentrations, approximately 1 μM substrate, and 50-100 nM protease. […] The kobs/I values were obtained from reactions initiated by addition of enzyme rather than substrate. RVP activity is measured in the fluorescence resonance energy transfer assay. […] In the uncleaved peptide, the EDANS fluorescence was quenched by the proximal DABCYL moeity. When the peptide was cleaved, the quenching was relieved, and activity was measured as an increase in fluorescence signal.
In the above table, all data is RVP serotype-14 unless otherwise noted in parentheses. All strains of human rhinovirus (HRV) were purchased from American Type Culture Collection (ATCC), except for serotype 14, which was produced from the infectious cDNA clone constructed and supplied to us by Dr. Roland Rueckert at the Institute for Molecular Virology, University of Wisconsin, Madison, Wisc. […] The data in the column designated kobs/I was measured from progress curves in enzyme start experiments.

HI-HeLa cells = experiment: Cytotoxicity in mock-infected HI-HeLa cells (antirhinoviral assay, XTT); assay type: cell-based
Procedure: (§1) HI-HeLa cells were infected with HRV-14 at a multiplicity of infection (m.o.i.) of 0.13 (virus particles/cell) or mock-infected with medium only. Infected or mock-infected cells were resuspended at 8×10^5 cells per mL and incubated with appropriate concentration of compounds of formulas I and II. Two days later, XTT/PMS was added to test plates and the amount of formazan produced was quantified spectrophotometrically at 450/650 nm. […] The therapeutic index (TI) was calculated by dividing the CC50 by the EC50.
(§2) All strains of human rhinovirus (HRV) for use in this assay were purchased from American Type Culture Collection (ATCC), except for HRV serotype-14, which was produced from the infectious cDNA clone, constructed and supplied to us by Dr. Roland Rueckert at the Institue for Molecular Virology, University of Wisconsin, Madison, Wisc. HRV stocks were propagated, and antiviral assays were perforemd in HI-HeLa cells (ATCC). Cells were grwon in Minimal Essential Medium, available from Life Technologies, with 10% fetal bovine serum.

HRV-14 = experiment: Antirhinoviral HI-HeLa Cell Culture Assay (Cell Protection Assay, XTT dye reduction); assay type: cell-based, human rhinovirus (HRV) serotype-14; conditions: HI-HeLa cells infected with HRV-14, m.o.i. 0.13; two days; XTT; read-out: EC50
Procedure: In the Cell Protection Assay, the ability of compounds to protect cells against HRV infection was measured by the XTT dye reduction method. This method is described in Weislow, O. S., R. Kiser, D. L. Fine, J. Bader, R. H. Shoemaker, and M. R. Boyd, J. Natl. Cancer Inst. 1989, 81, 577-586, which is incorporated herein by reference.
as §1, §2
The compounds were tested against control compounds WIN 51711, WIN 52084, and WIN 54954, all obtained from Sterling-Winthrop Pharmaceuticals, and control compound Pirodavir, obtained from Janssen Pharmaceuticals.

[2] = mock-infected HI-HeLa cells, two days, XTT, read-out: CC50

T1 sequence (P03303 1538-1719): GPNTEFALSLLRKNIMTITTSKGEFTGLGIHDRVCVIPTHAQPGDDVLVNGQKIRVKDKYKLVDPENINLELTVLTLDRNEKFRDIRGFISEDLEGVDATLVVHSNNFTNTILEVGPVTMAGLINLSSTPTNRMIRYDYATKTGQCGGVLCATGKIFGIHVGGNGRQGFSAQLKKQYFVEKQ

Row | Compound | INHIB (percent inhibition) ([1]; 10 μM compound) | kobs/I [1] | CC50 (HI-HeLa cells) [µM] | EC50 (HRV-14) [µM] | CC50 (HI-HeLa cells; [2]) [µM] | INHIB (percent inhibition) ([1]; 5 μM compound) | INHIB (percent inhibition) [1] | Ki ([1]; 10 minute preincubation, substrate start, read-out: INHIB (Ki)) [µM]
1 | CCOC(=O)/C=C/[C@H](CCC(N)=O)NC(=O)[C@H](Cc1ccccc1)NS(=O)(=O)CC [Compound 33, Ethyl-3-[N-(Ethylsulfonyl)-L-Phe-L-Gln]-E-Propenoate] | 24(10) percent | 33 M⁻¹ s⁻¹ | > 100 |  |  |  |  | 
2 | CCOC(=O)/C=C/[C@H](CCC(N)=O)NC(=O)[C@H](Cc1ccc(OP(=O)(O)O)cc1)NC(=O)[C@H](CC(C)C)NC(=O)OCc1ccccc1 [Compound 105] |  | 1,200 M-1 sec-1 |  | 14 | > 320 |  |  | 
3 | CCOC(=O)/C=C/[C@H](CCC(N)=O)NC(=O)[C@H](CC)NC(=O)[C@H](CC(C)C)NC(=O)OCc1ccccc1 [Compound 108] |  | 4,694 M-1 sec-1 | > 320 | 6 |  |  |  | 
4 | CCOC(=O)/C(C)=C/[C@H](CCC(N)=O)NC(=O)[C@H](Cc1ccc(F)cc1)NC(=O)[C@@H](NC(=O)SC1CCCC1)C(C)(C)C [Compound 177, Ethyl-2-Methyl-3-[Cyclopentylthiocarbonyl-L-α-(t-Butyl-Gly)-L-(4-F-Phe)-L-Gln]-E-Propenoate] |  | 80,300 M-1 sec-1 | > 100 | 0.5 |  |  |  | 
5 | CCOC(=O)/C=C/[C@H](CCC(N)=O)NC(=O)[C@H](Cc1ccccc1)NC(=O)[C@@H](NC(=O)SC1CCCC1)C(C)(C)SC [Compound 178, Ethyl-3-[Cyclopentylthiocarbonyl-L-(S-Me-Pen)-L-Phe-L-Gln]-E-Propenoate] |  | 286,300 M-1 sec-1 | > 100 | 0.1 |  |  |  | 
6 | CC(C)C[C@H](NC(=O)OCc1ccccc1)C(=O)N[C@@H](Cc1ccccc1)C(=O)N[C@H](/C=C/C(=O)C(C)(C)C)CCC(N)=O [Compound 52] |  | 15,000 M-1 sec-1 | 5.6 | 1.7 |  |  |  | 
7 | CC(C)C[C@H](NC(=O)OCc1ccccc1)C(=O)N[C@@H](Cc1ccccc1)C(=O)N[C@H](/C=C/C(=O)n1cccc1)CCC(N)=O [Compound 66] |  | 400,000 M-1 sec-1 | 6.3 | 1.4 |  |  |  | 
8 | CC(C)C[C@H](NC(=O)OCc1ccccc1)C(=O)N[C@@H](Cc1ccccc1)C(=O)N[C@H](/C=C/S(=O)(=O)c1ccccc1)CCC(N)=O [Compound 10, Phenyl-[2-(CBZ-L-Leu-L-Phe-L-Gln)-E-Vinyl]Sulfone] |  | 270 M⁻¹ s⁻¹ | > 320 | 200 |  | 55(5) percent |  | 
9 | CCOC(=O)/C=C/[C@H](CCC(N)=O)NC(=O)[C@H](Cc1ccccc1)NS(=O)(=O)Cc1ccccc1 [Compound 32, Ethyl-3-[N-(Benzylsulfonyl)-L-Phe-L-Gln]-E-Propenoate] |  | 280 M⁻¹ s⁻¹ | > 100 | 10 |  |  |  | 
10 | CC(C)C[C@H](NC(=O)OCc1ccccc1)C(=O)N[C@@H](Cc1ccccc1)C(=O)N[C@H](/C=C/C(=O)O)CCC(N)=O [Compound 15, 3-(CBZ-L-Leu-L-Phe-L-Gln)-E-Propenoic Acid] |  | 27 M⁻¹ s⁻¹ | > 100 | > 100 |  |  | 55(50) percent | 
11 | CCOC(=O)/C=C/[C@H](CCC(N)=O)NC(=O)[C@H](Cc1ccc(F)cc1)NC(=O)[C@@H](NC(=O)SC1CCCC1)C(C)(C)C [Compound 176, Ethyl-3-[Cyclopentylthiocarbonyl-L-α-(t-Butyl-Gly)-L-(4-F-Phe)-L-Gln]-E-Propenoate] |  | 240,000 M-1 sec-1 | > 100 | 0.14 |  |  |  | 0.48
12 | CC(C)C[C@H](NC(=O)OCc1ccccc1)C(=O)N[C@@H](Cc1ccccc1)C(=O)N[C@H](/C=C/C(=O)c1ccc(C#N)cc1)CCC(N)=O [Compound 80] |  | 200,000 M-1 sec-1 |  | 50 | > 320 |  |  | 
13 | CC(=O)N1CC/C(=C\[C@H](CCC(N)=O)NC(=O)[C@H](Cc2ccc(F)cc2)NC(=O)[C@H](CSc2ccccc2)NC(=O)SC2CCCC2)C1=O [Compound 181] |  | 1,000,000 M-1 sec-1 | > 100 | 0.1 |  |  |  | 
14 | CCOC(=O)/C=C/[C@H](CCC(N)=O)NC(=O)[C@H](Cc1ccc(C)cc1)NC(=O)[C@@H](NC(=O)SC1CCCC1)C(C)(C)C [Compound 174, Ethyl-3-[Cyclopentylthiocarbonyl-L-α-(t-Butyl-Gly)-L-(4-Me-Phe)-L-Gln]-E-Propenoate] |  |  |  | 0.056 | > 100 |  |  | 
